Tests used:
[1] = system: hIAPPtg DIO mice; experiment: Prevention of diabetes in hIAPPtg DIO mice (oral gavage, 6 w); format: in vivo; conditions: 100 mg/kg/day gavage, 6 w HFD
[2] = system: CBA mice on HFD; experiment: Indirect calorimetry measurements; format: in vivo; conditions: 11 w
Method: VO2 and VCO2 rates were measured during 3 days by indirect calorimetry in TSE PhenoMaster Calorimetry metabolic cages (TSE Systems GmbH). The respiratory exchange ratio (RER) was calculated as a ratio of VCO2 produced/VO2 consumed. […] Energy expenditure (EE) was calculated as the product of the calorific value (CV) of oxygen [=3.815+(1.232×RER)] and the volume of O2 consumed, i.e. [EE=CV×VO2 (kcal/h)] and related to lean weight.

[3] = system: DIO mice (B6CBAF1/J); experiment: Laser Doppler imaging of peripheral blood perfusion; format: in vivo; conditions: 40 mg/kg/day gavage, 8 w, vs vehicle
Method: 9 weeks old F1 mice were fed HFD for 8 weeks and treated with either vehicle or test material (40 mg/kg, orally once a day). Veet hair removal cream was used to remove hair from the left hind limb one day prior to blood perfusion analysis. Mice were anaesthetised using isoflurane and placed on a heating pad. Blood perfusion was scanned using a PeriScan PIM II Images and LDPIwin software (version 2.6.1) was used to analyse the images.

[4] = system: T2D patients on Metformin; experiment: Phase IIa clinical trial (TELLUS), 28 days; format: in vivo, human; conditions: for T2*-grad / Δ-T2*: group-averaged curve fitting
Method: An exploratory proof-of-concept randomised, parallel-group, double-blinded, placebo-controlled phase IIa 28-day study (TELLUS) of the first-in-class AMPK activator (the test material; 1,000 mg/day) was conducted in 65 T2D patients on Metformin for months, aiming at further exploring safety of test material and the effect of test material on FPG at a single-dose level.
Main inclusion criteria: Male and female patients, 18-80 years of age, with uncomplicated T2D, on stable T2D treatment with Metformin monotherapy for 3 months. HbA1c of ≥6.5% and 9.0%, and not FPG at day 1, was selected as the main inclusion criterion.
Main exclusion criteria: History of myocardial infarction (MI), unstable angina, stroke or transient ischemic attack (TIA). Congestive heart failure defined as New York Heart Association (NYHA) class III-IV. Any clinically significant abnormalities in physical examination, ECG or clinical chemistry results, as judged by the Investigator.
A good-manufacturing practice (GMP) batch of 5 kg test material was manufactured by Anthem BioSciences Pvt.Ltd, Bangalore, Karnataka, India. The suspension is composed of test material 20 mg/ml in 2% methylcellulose in phosphate buffer. A 2% methylcellulose suspension that colour matched the active product was used as placebo. The test material and placebo suspensions were manufactured, packaged and labelled by Recipharm Pharmaceutical Development AB, Solna, Sweden.
Sixty-five (65) patients were randomised (1:1) to treatment with either the material or placebo. A screening visit (Visit 1) was performed within 3 weeks before randomisation and the start of IMP administration. Patients were randomised on Day 1 (Visit 2) and allocated to 28 days' treatment with either test material or placebo (1:1). Study visits to the clinic were performed 7, 14, 21, 28, 29 and 40 days (Visits 3 to 8) following randomisation and start of treatment. The patients were confined to the research clinic from the evening before Day 1 and Day 28 (Day −1 and Day 27, respectively) to ensure fasting conditions before samples for analyses of FPG were collected. Magnetic Resonance Imaging (MRI) scans after screening but before day 1 and after end of treatment were performed at the University Hospital in Uppsala, Sweden, according to standardised methods. Antaros Medical in Uppsala performed the data analysis. A clinical read of the acquired scans was performed by a radiologist at Antaros Medical. If clinically significant findings were noted by the radiologist, the Investigator was notified of the finding. The Investigator was to evaluate and handle the finding as per standard medical/clinical judgment.
Any findings were reported as either baseline events or adverse events, if they started, or worsened after administration of the first dose of IMP. The method used for assessing microvascular function in the calf muscle, (a proxy for oxygenation), include a dynamic MRI investigation of T2* determination before during and after reactive hyperemia (Reference 4). Sixty five (65) patients were randomised, 32 patients in the placebo group and 33 in the test material group, and 59 patients completed the study (28 and 31 in the two groups, respectively). HbA1c of 6.5% and 9.0%, and not FPG at day 1, was used as the inclusion criterion since MRI examinations had to be performed after screen but before day 1.

[5] = 0.8 mg/g in HFD, light and dark periods
[6] = subjects with long TTP at baseline

plasma t1/2 ([4]; T2D patients): long | time to plasma steady-state concentration ([4]; T2D patients): ≥ 14 days
SMILES: O=C(Nc1nc(=O)n(Cc2ccc(Cl)cc2)s1)c1ccc(Cl)cc1 [test material, 4-chloro-N-[2-[(4-chlorophenyl)methyl]-3-oxo-1,2,4-thiadiazol-5-yl]benzamide]
HOMA-IR and Matsuda index (systemic insulin resistance) [1]: suppressed the development of systemic insulin resistance | i.p. and oral glucose-tolerance tests [1]: prevented the development of glucose intolerance and compensatory hyperinsulinemia | 6 h fasted blood glucose ([1]; vs vehicle): averted the increase | 6 h fasted plasma insulin levels ([1]; vs vehicle): averted the increase | energy expenditure (EE) [2, 5]: significantly increased | oxygen consumption (VO2) [2, 5]: significantly increased | respiratory exchange ratio (RER) ([2]; 0.8 mg/g, day 2 light period, all 3 days dark period): significantly decreased | microvascular blood flow in hind legs [3]: significantly increased microvascular blood flow | mean absolute reduction in diastolic blood pressure, day 28 vs day 1 ([4]; 1,000 mg/day): −3.8 mmHg | mean absolute reduction in systolic blood pressure, day 28 vs day 1 ([4]; 1,000 mg/day): −5.8 mmHg | tolerability ([4]; 1,000 mg/day, 28 days): well tolerated | HOMA-IR at day 28 compared with day 1 ([4]; 1,000 mg/day, Wilcoxon test within group): statistically significant both absolute (P=0.0097) and relative (P=0.017) reduction | change in mean heart rate at day 28 compared with baseline ([4]; 1,000 mg/day, not significant): −1.6 bpm | mean absolute reduction in FPG at day 28 compared with day 1 ([4]; 1,000 mg/day, post hoc, FPG >7 to <13.3 mmol/l at day 1): -0.60 mM | T2*-grad ([4]; MR1 (screening/baseline)): 0.528 min⁻¹ | Δ-T2* ([4]; MR1 (screening/baseline)): 0.072 | T2*-grad ([4]; MR2 (day 27-29)): 0.665 min⁻¹ | Δ-T2* ([4]; MR2 (day 27-29)): 0.081 | T2*-gradient at day 28 compared with baseline ([4]; individual curve fitting, Wilcoxon within group): significant relative increase | Δ−T2* (hyperemic perfusion) at day 28 compared with baseline ([4]; individual curve fitting, vs placebo, 2-way ANOVA): statistically significant increase | time-to-peak (TTP), MRI1 vs MRI2 [4, 6]: significant shortening of TTP | Δ−T2*, MRI1 vs MRI2 [4, 6]: increase

Reference: patent publication US20220023269A1, “Methods Of Treating Diabetes In Severe Insulin-Resistant Diabetic Subjects” (Balticgruppen Bio AB, priority 2018, published 2022)
